Measurements taken from PubChem BioAssay (NCI).
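Five concentrations, 48 hours, 96-well plates. TGI: total growth inhibition.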

Columns and labels:
Experiment in all cases: NCI tumour cell line growth inhibition, 48 h
EKVX NSCLC = test system: EKVX NSCLC
OVCAR-4 ovarian = test system: OVCAR-4 ovarian
SF-295 CNS = test system: SF-295 CNS
SNB-19 CNS = test system: SNB-19 CNS
SK-OV-3 ovarian = test system: SK-OV-3 ovarian
CAKI-1 renal = test system: CAKI-1 renal
SW-620 colon = test system: SW-620 colon
SF-539 CNS = test system: SF-539 CNS
NCI/ADR-RES ovarian = test system: NCI/ADR-RES ovarian
HCC-2998 colon = test system: HCC-2998 colon
NCI-H23 lung = test system: NCI-H23 lung
A498 renal = test system: A498 renal
DMS 114 small cell lung = test system: DMS 114 small cell lung
HOP-18 NSCLC = test system: HOP-18 NSCLC
KM12 colon = test system: KM12 colon
SNB-78 CNS = test system: SNB-78 CNS
RXF 393 renal = test system: RXF 393 renal
HT29 colon = test system: HT29 colon
NCI-H226 lung = test system: NCI-H226 lung
SN12C renal = test system: SN12C renal
U251 CNS = test system: U251 CNS
OVCAR-8 ovarian = test system: OVCAR-8 ovarian
DMS 273 small cell lung = test system: DMS 273 small cell lung
UO-31 renal = test system: UO-31 renal
P388/ADR leukemia = test system: P388/ADR leukemia
SF-268 CNS = test system: SF-268 CNS
P388 leukemia = test system: P388 leukemia
SNB-75 CNS = test system: SNB-75 CNS
K-562 leukemia = test system: K-562 leukemia
OVCAR-5 ovarian = test system: OVCAR-5 ovarian
UACC-62 melanoma = test system: UACC-62 melanoma
OVCAR-3 ovarian = test system: OVCAR-3 ovarian
M19-MEL melanoma = test system: M19-MEL melanoma
IGROV1 ovarian = test system: IGROV1 ovarian
CCRF-CEM leukemia = test system: CCRF-CEM leukemia
UACC-257 melanoma = test system: UACC-257 melanoma
HCT-116 colon = test system: HCT-116 colon
KM20L2 colon = test system: KM20L2 colon
A549 NSCLC = test system: A549 NSCLC
HL-60(TB) leukemia = test system: HL-60(TB) leukemia
LOX IMVI melanoma = test system: LOX IMVI melanoma
RPMI-8226 leukemia = test system: RPMI-8226 leukemia
HOP-92 NSCLC = test system: HOP-92 NSCLC
COLO 205 colon = test system: COLO 205 colon
MOLT-4 leukemia = test system: MOLT-4 leukemia
SN12K1 renal = test system: SN12K1 renal
HCT-15 colon = test system: HCT-15 colon
SK-MEL-28 melanoma = test system: SK-MEL-28 melanoma
MALME-3M melanoma = test system: MALME-3M melanoma
SK-MEL-2 melanoma = test system: SK-MEL-2 melanoma
SK-MEL-5 melanoma = test system: SK-MEL-5 melanoma
HOP-62 NSCLC = test system: HOP-62 NSCLC
NCI-H460 lung = test system: NCI-H460 lung
DLD-1 colon = test system: DLD-1 colon
NCI-H522 lung = test system: NCI-H522 lung
MCF7 breast = test system: MCF7 breast
XF 498 CNS = test system: XF 498 CNS

Compound `Cc1c2cnccc2c(C)c2c1c1ccccc1n2CC1CO1` (stereo unspecified) has a TGI (EKVX NSCLC) of 2080 nM, a TGI (OVCAR-4 ovarian) of 5.46 µM and a TGI (SF-295 CNS) of 3.2 µM. The TGI (SNB-19 CNS) was 5.59 µM, the TGI (SK-OV-3 ovarian) was 6.93 µM and the TGI (CAKI-1 renal) was 4870 nM. It also gave a TGI (SW-620 colon) of 2800 nM, a TGI (SF-539 CNS) of 2520 nM and a TGI (NCI/ADR-RES ovarian) of 3.57 µM. The TGI (HCC-2998 colon) was 4.4 µM, the TGI (NCI-H23 lung) was 8.4 µM and the TGI (A498 renal) was 581 nM. For the same compound, the TGI (DMS 114 small cell lung) was 2430 nM, the TGI (HOP-18 NSCLC) was 6.56 µM and the TGI (KM12 colon) was 10.9 µM. For the same compound, the TGI (SNB-78 CNS) was 5.14 µM, the TGI (RXF 393 renal) was 1920 nM and the TGI (HT29 colon) was 4.82 µM. The TGI (NCI-H226 lung) was 5.54 µM, the TGI (SN12C renal) was 1310 nM and the TGI (U251 CNS) was 9.1 µM. For the same compound, the TGI (OVCAR-8 ovarian) was 2800 nM, the TGI (DMS 273 small cell lung) was 2430 nM and the TGI (UO-31 renal) was 3.02 µM. It also gave a TGI (P388/ADR leukemia) of 1.61 µM, a TGI (SF-268 CNS) of 2090 nM and a TGI (P388 leukemia) of 1.26 µM. For the same compound, the TGI (SNB-75 CNS) was 861 nM, the TGI (K-562 leukemia) was 3.24 µM and the TGI (OVCAR-5 ovarian) was 5.54 µM. For the same compound, the TGI (UACC-62 melanoma) was 8.19 µM, the TGI (OVCAR-3 ovarian) was 3.76 µM and the TGI (M19-MEL melanoma) was 2940 nM. The TGI (IGROV1 ovarian) was 5.99 µM, the TGI (CCRF-CEM leukemia) was 1.28 µM and the TGI (UACC-257 melanoma) was 3.51 µM. The TGI (HCT-116 colon) was 5.07 µM, the TGI (KM20L2 colon) was 4.62 µM and the TGI (A549 NSCLC) was 4.85 µM. The TGI (HL-60(TB) leukemia) was 597 nM, the TGI (LOX IMVI melanoma) was 2740 nM and the TGI (RPMI-8226 leukemia) was 7.6 µM. It also gave a TGI (HOP-92 NSCLC) of 4310 nM, a TGI (COLO 205 colon) of 2870 nM and a TGI (MOLT-4 leukemia) of 0.328 µM. The TGI (SN12K1 renal) was 2200 nM, the TGI (HCT-15 colon) was 4.56 µM and the TGI (SK-MEL-28 melanoma) was 4.03 µM. For the same compound, the TGI (MALME-3M melanoma) was 3.44 µM, the TGI (SK-MEL-2 melanoma) was 3.44 µM and the TGI (SK-MEL-5 melanoma) was 2230 nM. The TGI (HOP-62 NSCLC) was 3.34 µM, the TGI (NCI-H460 lung) was 2520 nM and the TGI (DLD-1 colon) was 4.58 µM. The TGI (NCI-H522 lung) was 3.29 µM and the TGI (MCF7 breast) was 2910 nM.
In the case of `Cn1c(/C=C/CO)c(CO)c2c1C(=O)C=C(N1CC1)C2=O`, the TGI (EKVX NSCLC) is reported as 178 nM, the TGI (OVCAR-4 ovarian) is reported as 0.223 µM and the TGI (SF-295 CNS) is reported as < 0.01 µM. The TGI (SNB-19 CNS) was 0.0369 µM, the TGI (SK-OV-3 ovarian) was 0.0855 µM and the TGI (CAKI-1 renal) was 58.8 nM. The TGI (SW-620 colon) was 104 nM, the TGI (SF-539 CNS) was < 16.3 nM and the TGI (NCI/ADR-RES ovarian) was 0.0346 µM. The TGI (HCC-2998 colon) was 0.0203 µM, the TGI (A498 renal) was 23.5 nM and the TGI (DMS 114 small cell lung) was 15.3 nM. The TGI (HOP-18 NSCLC) was < 0.01 µM, the TGI (KM12 colon) was 0.0172 µM and the TGI (SNB-78 CNS) was 7.21 µM. For the same compound, the TGI (RXF 393 renal) was 11.2 nM, the TGI (XF 498 CNS) was 0.0171 µM and the TGI (HT29 colon) was 0.0534 µM. It also gave a TGI (NCI-H226 lung) of 0.0602 µM, a TGI (SN12C renal) of 25.3 nM and a TGI (U251 CNS) of 0.0101 µM. The TGI (OVCAR-8 ovarian) was 93.6 nM, the TGI (DMS 273 small cell lung) was < 10.7 nM and the TGI (UO-31 renal) was < 0.01 µM. The TGI (P388/ADR leukemia) was 3.91 µM, the TGI (SF-268 CNS) was 37.9 nM and the TGI (P388 leukemia) was 4.9 µM. The TGI (SNB-75 CNS) was < 12.4 nM, the TGI (K-562 leukemia) was 0.378 µM and the TGI (OVCAR-5 ovarian) was < 0.0273 µM. For the same compound, the TGI (UACC-62 melanoma) was < 0.0115 µM, the TGI (OVCAR-3 ovarian) was 0.0561 µM and the TGI (M19-MEL melanoma) was < 11 nM. For the same compound, the TGI (IGROV1 ovarian) was 0.197 µM, the TGI (CCRF-CEM leukemia) was 23.9 µM and the TGI (UACC-257 melanoma) was 0.018 µM. For the same compound, the TGI (HCT-116 colon) was 1.02 µM, the TGI (KM20L2 colon) was 0.0639 µM and the TGI (A549 NSCLC) was < 0.01 µM. It also gave a TGI (HL-60(TB) leukemia) of 682 nM, a TGI (LOX IMVI melanoma) of 10.2 nM and a TGI (RPMI-8226 leukemia) of 0.0805 µM. For the same compound, the TGI (HOP-92 NSCLC) was 488 nM, the TGI (COLO 205 colon) was 23.6 nM and the TGI (MOLT-4 leukemia) was 4.15 µM. The TGI (SN12K1 renal) was 22.4 nM, the TGI (HCT-15 colon) was < 0.0159 µM and the TGI (SK-MEL-28 melanoma) was 0.202 µM. For the same compound, the TGI (MALME-3M melanoma) was 0.024 µM, the TGI (SK-MEL-2 melanoma) was < 0.01 µM and the TGI (SK-MEL-5 melanoma) was < 15 nM. For the same compound, the TGI (HOP-62 NSCLC) was < 0.0139 µM, the TGI (NCI-H460 lung) was < 10 nM and the TGI (DLD-1 colon) was 0.662 µM. For the same compound, the TGI (NCI-H522 lung) was < 0.018 µM and the TGI (MCF7 breast) was 15.6 nM.
In the case of `CSc1nc(SC)c2cnn(CC3CO3)c2n1` (stereo unspecified), the TGI (EKVX NSCLC) is reported as > 75400 nM, the TGI (OVCAR-4 ovarian) is reported as 44.2 µM and the TGI (SF-295 CNS) is reported as 55.4 µM. For the same compound, the TGI (SNB-19 CNS) was > 100 µM, the TGI (SK-OV-3 ovarian) was > 100 µM and the TGI (SW-620 colon) was > 44700 nM. The TGI (SF-539 CNS) was 38500 nM, the TGI (NCI/ADR-RES ovarian) was 36.3 µM and the TGI (HCC-2998 colon) was 31.3 µM. For the same compound, the TGI (NCI-H23 lung) was 34.6 µM, the TGI (A498 renal) was > 100000 nM and the TGI (DMS 114 small cell lung) was 32600 nM. The TGI (HOP-18 NSCLC) was > 100 µM, the TGI (KM12 colon) was 39.2 µM and the TGI (RXF 393 renal) was 34000 nM. The TGI (XF 498 CNS) was 45.4 µM, the TGI (HT29 colon) was 47.1 µM and the TGI (NCI-H226 lung) was 38.7 µM. For the same compound, the TGI (SN12C renal) was > 50100 nM, the TGI (U251 CNS) was 45.4 µM and the TGI (OVCAR-8 ovarian) was 15800 nM. The TGI (DMS 273 small cell lung) was > 54600 nM, the TGI (UO-31 renal) was 45 µM and the TGI (P388/ADR leukemia) was > 57 µM. The TGI (SF-268 CNS) was 33900 nM, the TGI (P388 leukemia) was > 54.5 µM and the TGI (SNB-75 CNS) was 44700 nM. For the same compound, the TGI (K-562 leukemia) was > 100 µM, the TGI (OVCAR-5 ovarian) was 41.3 µM and the TGI (UACC-62 melanoma) was 33.5 µM. The TGI (OVCAR-3 ovarian) was > 65.1 µM, the TGI (M19-MEL melanoma) was 27100 nM and the TGI (IGROV1 ovarian) was 38.1 µM. The TGI (CCRF-CEM leukemia) was 70.5 µM, the TGI (UACC-257 melanoma) was 37.4 µM and the TGI (HCT-116 colon) was 31.9 µM. For the same compound, the TGI (KM20L2 colon) was 43.4 µM, the TGI (A549 NSCLC) was 64.8 µM and the TGI (HL-60(TB) leukemia) was 45400 nM. For the same compound, the TGI (LOX IMVI melanoma) was 19800 nM, the TGI (RPMI-8226 leukemia) was > 100 µM and the TGI (COLO 205 colon) was 35500 nM. For the same compound, the TGI (MOLT-4 leukemia) was 7.73 µM, the TGI (SN12K1 renal) was 21600 nM and the TGI (HCT-15 colon) was > 61.4 µM. It also gave a TGI (SK-MEL-28 melanoma) of 18.6 µM, a TGI (MALME-3M melanoma) of 45.2 µM and a TGI (SK-MEL-2 melanoma) of 31.7 µM. For the same compound, the TGI (SK-MEL-5 melanoma) was 17800 nM, the TGI (HOP-62 NSCLC) was 41.2 µM and the TGI (NCI-H460 lung) was 40800 nM. The TGI (DLD-1 colon) was 53.9 µM, the TGI (NCI-H522 lung) was 77.3 µM and the TGI (MCF7 breast) was 25700 nM.
